Reference: the NIST ThermoML archive (doi:10.1021/je5009334)
± gives the expanded uncertainty stated by the source.

Assay: xn = mol fraction of the nth substance listed
Settings: 101 kPa, Liquid; for speed of sound: Sing-around technique in a fixed-path interferometer; for mass density: Vibrating tube method

CCC(O)CO (stereo not given) [1,2-butanediol] + CCC(C)O
speed of sound (298.15 K, x1 = 0.1): 1231 ± 1.2 m/s | speed of sound (298.15 K, x1 = 0.2): 1250.6 ± 1.2 m/s | speed of sound (298.15 K, x1 = 0.3): 1270.9 ± 1.2 m/s | speed of sound (298.15 K, x1 = 0.4): 1292.2 ± 1.2 m/s | speed of sound (298.15 K, x1 = 0.5): 1315.5 ± 1.2 m/s | speed of sound (298.15 K, x1 = 0.6): 1340.2 ± 1.2 m/s | speed of sound (298.15 K, x1 = 0.7): 1365.7 ± 1.3 m/s | speed of sound (298.15 K, x1 = 0.8): 1393.3 ± 1.3 m/s | speed of sound (298.15 K, x1 = 0.9): 1423.1 ± 1.3 m/s | speed of sound (298.15 K, x1 = 1): 1452.6 ± 1.3 m/s | mass density (298.15 K, x1 = 0.1): 821.98 ± 0.24 kg/m3 | mass density (298.15 K, x1 = 0.2): 841.211 ± 0.24 kg/m3 | mass density (298.15 K, x1 = 0.3): 860.512 ± 0.24 kg/m3 | mass density (298.15 K, x1 = 0.4): 879.912 ± 0.25 kg/m3 | mass density (298.15 K, x1 = 0.5): 899.493 ± 0.25 kg/m3 | mass density (298.15 K, x1 = 0.6): 919.721 ± 0.24 kg/m3 | mass density (298.15 K, x1 = 0.7): 939.207 ± 0.24 kg/m3 | mass density (298.15 K, x1 = 0.8): 959.168 ± 0.23 kg/m3 | mass density (298.15 K, x1 = 0.9): 978.763 ± 0.23 kg/m3 | mass density (298.15 K, x1 = 1): 998.509 ± 0.23 kg/m3 | speed of sound (303.15 K, x1 = 0.1): 1213.1 ± 1.2 m/s | speed of sound (303.15 K, x1 = 0.2): 1233.5 ± 1.2 m/s | speed of sound (303.15 K, x1 = 0.3): 1253.8 ± 1.2 m/s | speed of sound (303.15 K, x1 = 0.4): 1275.5 ± 1.2 m/s | speed of sound (303.15 K, x1 = 0.5): 1299.1 ± 1.2 m/s | speed of sound (303.15 K, x1 = 0.6): 1324.6 ± 1.2 m/s | speed of sound (303.15 K, x1 = 0.7): 1350 ± 1.2 m/s | speed of sound (303.15 K, x1 = 0.8): 1378.1 ± 1.2 m/s | speed of sound (303.15 K, x1 = 0.9): 1408.3 ± 1.3 m/s | speed of sound (303.15 K, x1 = 1): 1438.2 ± 1.3 m/s | mass density (303.15 K, x1 = 0.1): 817.802 ± 0.24 kg/m3 | mass density (303.15 K, x1 = 0.2): 837.068 ± 0.24 kg/m3 | mass density (303.15 K, x1 = 0.3): 856.416 ± 0.24 kg/m3 | mass density (303.15 K, x1 = 0.4): 875.848 ± 0.25 kg/m3 | mass density (303.15 K, x1 = 0.5): 895.477 ± 0.25 kg/m3 | mass density (303.15 K, x1 = 0.6): 915.764 ± 0.25 kg/m3 | mass density (303.15 K, x1 = 0.7): 935.294 ± 0.24 kg/m3 | mass density (303.15 K, x1 = 0.8): 955.308 ± 0.23 kg/m3 | mass density (303.15 K, x1 = 0.9): 974.958 ± 0.23 kg/m3 | mass density (303.15 K, x1 = 1): 994.759 ± 0.23 kg/m3 | speed of sound (308.15 K, x1 = 0.1): 1195.3 ± 1.2 m/s | speed of sound (308.15 K, x1 = 0.2): 1216 ± 1.2 m/s | speed of sound (308.15 K, x1 = 0.3): 1236.8 ± 1.2 m/s | speed of sound (308.15 K, x1 = 0.4): 1258.8 ± 1.2 m/s | speed of sound (308.15 K, x1 = 0.5): 1282.9 ± 1.2 m/s | speed of sound (308.15 K, x1 = 0.6): 1308.7 ± 1.2 m/s | speed of sound (308.15 K, x1 = 0.7): 1334.5 ± 1.2 m/s | speed of sound (308.15 K, x1 = 0.8): 1362.8 ± 1.2 m/s | speed of sound (308.15 K, x1 = 0.9): 1393.4 ± 1.2 m/s | speed of sound (308.15 K, x1 = 1): 1423.6 ± 1.3 m/s | mass density (308.15 K, x1 = 0.1): 813.551 ± 0.24 kg/m3 | mass density (308.15 K, x1 = 0.2): 832.862 ± 0.24 kg/m3 | mass density (308.15 K, x1 = 0.3): 852.256 ± 0.24 kg/m3 | mass density (308.15 K, x1 = 0.4): 871.737 ± 0.25 kg/m3 | mass density (308.15 K, x1 = 0.5): 891.419 ± 0.25 kg/m3 | mass density (308.15 K, x1 = 0.6): 911.761 ± 0.25 kg/m3 | mass density (308.15 K, x1 = 0.7): 931.345 ± 0.24 kg/m3 | mass density (308.15 K, x1 = 0.8): 951.414 ± 0.23 kg/m3 | mass density (308.15 K, x1 = 0.9): 971.12 ± 0.23 kg/m3 | mass density (308.15 K, x1 = 1): 990.971 ± 0.23 kg/m3 | speed of sound (313.15 K, x1 = 0.1): 1177.3 ± 1.2 m/s | speed of sound (313.15 K, x1 = 0.2): 1198.2 ± 1.2 m/s | speed of sound (313.15 K, x1 = 0.3): 1219.7 ± 1.2 m/s | speed of sound (313.15 K, x1 = 0.4): 1242.2 ± 1.2 m/s | speed of sound (313.15 K, x1 = 0.5): 1266.7 ± 1.2 m/s | speed of sound (313.15 K, x1 = 0.6): 1292.9 ± 1.2 m/s | speed of sound (313.15 K, x1 = 0.7): 1319 ± 1.2 m/s | speed of sound (313.15 K, x1 = 0.8): 1347.7 ± 1.2 m/s | speed of sound (313.15 K, x1 = 0.9): 1378.5 ± 1.2 m/s | speed of sound (313.15 K, x1 = 1): 1409.1 ± 1.3 m/s | mass density (313.15 K, x1 = 0.1): 809.205 ± 0.24 kg/m3 | mass density (313.15 K, x1 = 0.2): 828.579 ± 0.24 kg/m3 | mass density (313.15 K, x1 = 0.3): 848.033 ± 0.24 kg/m3 | mass density (313.15 K, x1 = 0.4): 867.576 ± 0.25 kg/m3 | mass density (313.15 K, x1 = 0.5): 887.316 ± 0.25 kg/m3 | mass density (313.15 K, x1 = 0.6): 907.718 ± 0.25 kg/m3 | mass density (313.15 K, x1 = 0.7): 927.356 ± 0.24 kg/m3 | mass density (313.15 K, x1 = 0.8): 947.483 ± 0.23 kg/m3 | mass density (313.15 K, x1 = 0.9): 967.241 ± 0.23 kg/m3 | mass density (313.15 K, x1 = 1): 987.152 ± 0.23 kg/m3 | speed of sound (318.15 K, x1 = 0.1): 1159.3 ± 1.2 m/s | speed of sound (318.15 K, x1 = 0.2): 1180.7 ± 1.2 m/s | speed of sound (318.15 K, x1 = 0.3): 1202.6 ± 1.2 m/s | speed of sound (318.15 K, x1 = 0.4): 1225.5 ± 1.2 m/s | speed of sound (318.15 K, x1 = 0.5): 1250.5 ± 1.2 m/s | speed of sound (318.15 K, x1 = 0.6): 1277 ± 1.2 m/s | speed of sound (318.15 K, x1 = 0.7): 1303.5 ± 1.2 m/s | speed of sound (318.15 K, x1 = 0.8): 1332.5 ± 1.2 m/s | speed of sound (318.15 K, x1 = 0.9): 1363.6 ± 1.2 m/s | speed of sound (318.15 K, x1 = 1): 1394.5 ± 1.2 m/s | mass density (318.15 K, x1 = 0.1): 804.796 ± 0.24 kg/m3 | mass density (318.15 K, x1 = 0.2): 824.244 ± 0.24 kg/m3 | mass density (318.15 K, x1 = 0.3): 843.762 ± 0.24 kg/m3 | mass density (318.15 K, x1 = 0.4): 863.365 ± 0.25 kg/m3 | mass density (318.15 K, x1 = 0.5): 883.169 ± 0.26 kg/m3 | mass density (318.15 K, x1 = 0.6): 903.63 ± 0.25 kg/m3 | mass density (318.15 K, x1 = 0.7): 923.329 ± 0.24 kg/m3 | mass density (318.15 K, x1 = 0.8): 943.516 ± 0.23 kg/m3 | mass density (318.15 K, x1 = 0.9): 963.332 ± 0.23 kg/m3 | mass density (318.15 K, x1 = 1): 983.297 ± 0.23 kg/m3 | speed of sound (323.15 K, x1 = 0.1): 1141.5 ± 1.2 m/s | speed of sound (323.15 K, x1 = 0.2): 1163.1 ± 1.2 m/s | speed of sound (323.15 K, x1 = 0.3): 1185.5 ± 1.2 m/s | speed of sound (323.15 K, x1 = 0.4): 1208.9 ± 1.2 m/s | speed of sound (323.15 K, x1 = 0.5): 1234.3 ± 1.2 m/s | speed of sound (323.15 K, x1 = 0.6): 1260.8 ± 1.2 m/s | speed of sound (323.15 K, x1 = 0.7): 1288.4 ± 1.2 m/s | speed of sound (323.15 K, x1 = 0.8): 1317.6 ± 1.2 m/s | speed of sound (323.15 K, x1 = 0.9): 1348.7 ± 1.2 m/s | speed of sound (323.15 K, x1 = 1): 1379.9 ± 1.2 m/s | mass density (323.15 K, x1 = 0.1): 800.305 ± 0.24 kg/m3 | mass density (323.15 K, x1 = 0.2): 819.834 ± 0.24 kg/m3 | mass density (323.15 K, x1 = 0.3): 839.427 ± 0.24 kg/m3 | mass density (323.15 K, x1 = 0.4): 859.1 ± 0.25 kg/m3 | mass density (323.15 K, x1 = 0.5): 878.969 ± 0.26 kg/m3 | mass density (323.15 K, x1 = 0.6): 899.488 ± 0.25 kg/m3 | mass density (323.15 K, x1 = 0.7): 919.266 ± 0.24 kg/m3 | mass density (323.15 K, x1 = 0.8): 939.516 ± 0.24 kg/m3 | mass density (323.15 K, x1 = 0.9): 959.384 ± 0.23 kg/m3 | mass density (323.15 K, x1 = 1): 979.406 ± 0.23 kg/m3
